Assay results published in patent publication US20220409629A1, “BENZODIAZEPINE DERIVATIVES FOR TREATING A RESPIRATORY SYNCYTIAL VIRUS (RSV) INFECTION” (priority 2019, published 2022).
pEC50: −log10 of the molar value.

Columns and labels:
[1] = Liver microsomal stability, rat; type: in vitro ADME; settings: pH 7.4; rat liver microsomes, 0.5 mg/mL protein, 1 μM compound, NADPH; >80% remaining at 45 min denoted >140; read-out: Liver Microsomal Stability: t1/2 (min); rat
Method: (§1) Compounds were subjected to the following assays to investigate liver microsomal stability, permeability and plasma protein binding.
(§2) Pooled liver microsomes were purchased from a reputable commercial supplier and stored at −80° C. prior to use. Microsomes (final protein concentration 0.5 mg/mL), 0.1 M phosphate buffer pH 7.4 and test compound (final substrate concentration 1 μM; final DMSO concentration 0.25%) were pre-incubated at 37° C. prior to the addition of NADPH (final concentration 1 mM) to initiate the reaction. The final incubation volume was 50 μL. A control incubation was included for each compound tested where 0.1 M phosphate buffer pH 7.4 was added instead of NADPH (minus NADPH). Two control compounds were included with each species. All incubations were performed singularly for each test compound. Each compound was incubated for 0, 5, 15, 30 and 45 min. The control (minus NADPH) was incubated for 45 min only. The reactions were stopped by transferring incubate into acetonitrile at the appropriate time points, in a 1:3 ratio. The termination plates are centrifuged at 3,000 rpm for 20 min at 4° C. to precipitate the protein. Following protein precipitation, the sample supernatants were combined in cassettes of up to 4 compounds, internal standard added, and samples analysed by LC-MS/MS. From a plot of ln peak area ratio (compound peak area/internal standard peak area) against time, the gradient of the line was determined. Subsequently, half-life (t1/2) and intrinsic clearance (CLint) were calculated.

[2] = test system: RSV A2; experiment: RSV plaque reduction assay; type: cell-based, respiratory syncytial virus (RSV); settings: human respiratory syncytial virus, HepG2; Hep-G2 cells, RSV A2, mean of at least two experiments
Method: Compounds were subjected to RSV plaque reduction assays according to the following protocol.
Hep-G2 cells (ECACC, 85011430) were passaged in flasks and seeded in 24-well plates in DMEM containing antibiotics and supplemented with 10% FBS. During inoculation and subsequent incubation, cells were cultured in DMEM containing 2% FBS. 100 plaque forming unit/well of RSV (RSV A2 ECACC, 0709161v) was mixed with eight serial dilutions of compound. Subsequently, 100 μL of the virus/compound mixtures was added to confluent Hep-G2 cell monolayers. The cells and virus/compound mixtures were incubated at 37° C. in a humidified 5% CO2 incubator for 2 h prior to removal of the inoculum and addition of 1 mL of overlay (DMEM containing 2% FBS and 0.8% CMC) containing compound dilutions. The cells and were incubated at 37° C. in a humidified 5% CO2 incubator for 2 days.
Cells were washed with PBS before adding 75/25% v/v EtOH/MeOH, for 3 min. Fixative was removed and plates were washed with PBS. A pre-titrated amount of the primary antibody was added in 200 μL PBS/2% milk powder, and plates incubated for 90 min at 37° C. The plates were washed 3 times with PBS/0.05% Tween20 before addition of rabbit anti-goat horse radish peroxidase in 200 μL PBS/2% milk powder, and incubated for 1 h at 37° C. Following three wash steps with PBS/0.05% Tween20, 200 μL ready-to-use TrueBlue was added and plates were incubated at rt for 10-15 min before washing with water. After removal of water, plates were air-dried in the dark.
Plates were scanned and analysed using the Immunospot S6 Macro analyser, which is equipped with BioSpot analysis software for counting immunostained plaques (virospots). Plaque counts were used to calculate % infection relative to the mean of the plaque count in the virus control wells for RSV. The EC50 value was calculated as 50% reduction in signal, respectively, by interpolation of inhibition curves fitted with a 4-parameter nonlinear regression with a variable slope in Dotmatics. Plaque EC50 and cell toxicity CC50 values are a mean of at least two experiments and figures are rounded to whole units.

[3] = Cell cytotoxicity CC50; type: cell-based; settings: human; mean of at least two experiments
[4] = Liver microsomal stability, dog; type: in vitro ADME; settings: pH 7.4; dog liver microsomes, 0.5 mg/mL protein, 1 μM compound, NADPH; >80% remaining at 45 min denoted >140; read-out: Liver Microsomal Stability: t1/2 (min); dog
Method: as §1, §2

[5] = Liver microsomal stability, human; type: in vitro ADME; settings: pH 7.4; human liver microsomes, 0.5 mg/mL protein, 1 μM compound, NADPH; >80% remaining at 45 min denoted >140; read-out: Liver Microsomal Stability: t1/2 (min); human
Method: as §1, §2

CCNc1ccc(-c2c(C(=O)N[C@H]3N=C(c4ccccc4)c4cccc(F)c4NC3=O)cnn2C2COC2)c(F)n1 [Example 40, 5-[6-(Ethylamino)-2-fluoropyridin-3-yl]-N-[(3S)-9-fluoro-2-oxo-5-phenyl-1,3-dihydro-1,4-benzodiazepin-3-yl]-1-(oxetan-3-yl)pyrazole-4-carboxamide]
half-life [1]: 81.1 min | pEC50 [2]: 7.17 | CC50 [3]: > 25000 nM | half-life [4]: 72.9 min | half-life [5]: 49.6 min

O=C(N[C@H]1N=C(c2ccccc2)c2ccccc2NC1=O)c1cnn(C2CCOCC2)c1-c1ccc(C2CC2)cc1F [Example 43, 5-(4-Cyclopropyl-2-fluorophenyl)-1-(oxan-4-yl)-N-[(3S)-2-oxo-5-phenyl-1,3-dihydro-1,4-benzodiazepin-3-yl]pyrazole-4-carboxamide]
half-life [1]: 44.9 min | pEC50 [2]: 7.32 | CC50 [3]: > 25000 nM | half-life [4]: 161 min | half-life [5]: 170 min

O=C(N[C@H]1N=C(c2ccccc2)c2cccc(F)c2NC1=O)c1cnn(C2CCOCC2)c1-c1ccc(C2CC2)cc1F [Example 44, 5-(4-Cyclopropyl-2-fluorophenyl)-N-[(3S)-9-fluoro-2-oxo-5-phenyl-1,3-dihydro-1,4-benzodiazepin-3-yl]-1-(oxan-4-yl)pyrazole-4-carboxamide]
half-life [1]: 55.9 min | pEC50 [2]: 7.32 | CC50 [3]: > 25000 nM | half-life [4]: 90 min | half-life [5]: 201 min

CCc1ccc(-c2c(C(=O)N[C@H]3N=C(c4ccccc4)c4cccc(F)c4NC3=O)cnn2C2CCOCC2)c(F)c1 [Example 47, 5-(4-Ethyl-2-fluorophenyl)-1-(oxan-4-yl)-N-[(3S)-9-fluoro-2-oxo-5-phenyl-1,3-dihydro-1,4-benzodiazepin-3-yl]pyrazole-4-carboxamide]
half-life [1]: 33.1 min | pEC50 [2]: 7.52 | CC50 [3]: > 25000 nM | half-life [4]: 81.4 min | half-life [5]: 105 min

CCn1ncc(C(=O)N[C@H]2N=C(c3ccccc3)c3cccc(F)c3NC2=O)c1-c1cc(C2CC2)cnc1F [Example 48, 5-(5-Cyclopropyl-2-fluoropyridin-3-yl)-1-ethyl-N-[(3S)-9-fluoro-2-oxo-5-phenyl-1,3-dihydro-1,4-benzodiazepin-3-yl]pyrazole-4-carboxamide]
half-life [1]: 118 min | pEC50 [2]: 7.04 | CC50 [3]: > 25000 nM | half-life [4]: > 140 min | half-life [5]: 355 min

O=C(N[C@H]1N=C(c2ccccc2)c2cccc(F)c2NC1=O)c1cnn(C2CCOCC2)c1-c1ccc(C2CC2)nc1F [Example 49, 5-(6-Cyclopropyl-2-fluoropyridin-3-yl)-N-[(3S)-9-fluoro-2-oxo-5-phenyl-1,3-dihydro-1,4-benzodiazepin-3-yl]-1-(oxan-4-yl)pyrazole-4-carboxamide]
half-life [1]: 73.4 min | pEC50 [2]: 7.00 | CC50 [3]: > 25000 nM | half-life [4]: 110 min | half-life [5]: 181 min

O=C(N[C@H]1N=C(c2ccccc2)c2ccccc2NC1=O)c1cnn(C2CCOCC2)c1-c1cc(C2CC2)cnc1F [Example 50, 5-(5-Cyclopropyl-2-fluoropyridin-3-yl)-1-(oxan-4-yl)-N-[(3S)-2-oxo-5-phenyl-1,3-dihydro-1,4-benzodiazepin-3-yl]pyrazole-4-carboxamide]
half-life [1]: 44.2 min | pEC50 [2]: 7.09 | CC50 [3]: > 25000 nM | half-life [4]: 163 min | half-life [5]: 94.3 min

O=C(N[C@H]1N=C(c2ccccc2)c2cccc(F)c2NC1=O)c1cnn(C2CCOCC2)c1-c1cc(C2CC2)cnc1F [Example 51, 5-(5-Cyclopropyl-2-fluoropyridin-3-yl)-N-[(3S)-9-fluoro-2-oxo-5-phenyl-1,3-dihydro-1,4-benzodiazepin-3-yl]-1-(oxan-4-yl)pyrazole-4-carboxamide]
half-life [1]: 92.8 min | pEC50 [2]: 7.28 | CC50 [3]: > 7790 nM | half-life [4]: 212 min | half-life [5]: 171 min

CCc1ccc(-c2c(C(=O)N[C@H]3N=C(c4ccccc4)c4cccc(F)c4NC3=O)cnn2C2CCOCC2)c(F)n1 [Example 53, 5-(6-Ethyl-2-fluoropyridin-3-yl)-1-(oxan-4-yl)-N-[(3S)-9-fluoro-2-oxo-5-phenyl-1,3-dihydro-1,4-benzodiazepin-3-yl]pyrazole-4-carboxamide]
half-life [1]: 200 min | pEC50 [2]: 7.14 | CC50 [3]: > 25000 nM | half-life [4]: 183 min | half-life [5]: > 140 min

CCOc1nn(CC)c(-c2ccccc2F)c1C(=O)N[C@H]1N=C(c2ccccc2)c2cccc(F)c2NC1=O [Example 55, 3-Ethoxy-1-ethyl-N-[(3S)-9-fluoro-2-oxo-5-phenyl-1,3-dihydro-1,4-benzodiazepin-3-yl]-5-(2-fluorophenyl)pyrazole-4-carboxamide]
half-life [1]: 26.5 min | pEC50 [2]: 7.48 | CC50 [3]: > 25000 nM | half-life [4]: 39 min | half-life [5]: 41.3 min

CN1CCC(n2ncc(C(=O)N[C@H]3N=C(c4ccccc4)c4cccc(F)c4NC3=O)c2-c2ccc(NC3CC3)nc2F)CC1 [Example 57, 5-[6-(Cyclopropylamino)-2-fluoropyridin-3-yl]-N-[(3S)-9-fluoro-2-oxo-5-phenyl-1,3-dihydro-1,4-benzodiazepin-3-yl]-1-(1-methylpiperidin-4-yl)pyrazole-4-carboxamide]
half-life [1]: 116 min | pEC50 [2]: 7.08 | CC50 [3]: > 9410 nM | half-life [4]: 175 min | half-life [5]: 84.7 min
